Results as given in article PMC11571207, “Stereorandomized Oncocins with Preserved Ribosome Binding and Antibacterial Activity” (Journal of Medicinal Chemistry, 2024).
≈ marks a conversion by molar mass, not a printed value. Like-named read-outs stand apart in the source and are kept apart here. Non-standard residues stand in square brackets, D forms with d. Residues, ends and D or L forms follow the SMILES beside them.

Assays:
[1] = tested on: human red blood cells; assay: Hemolysis assay, minimum hemolytic concentration
[2] = tested on: P. aeruginosa PA14 4.18 (pmrB); settings: for MIC P. aeruginosa PA14 4.18: supplement CSV
[3] = tested on: P. aeruginosa PA14; assay: microbe, parasite or virus in culture; settings: for MIC P. aeruginosa PA14: supplement CSV
Procedure, shortened: (§1)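 Minimal inhibitory concentrations come from broth microdilution in MH medium, with a top peptide concentration of 64 μg/mL halved serially.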

[4] = tested on: P. aeruginosa ZEM-1A; assay: microbe, parasite or virus in culture; settings: for MIC P. aeruginosa ZEM-1A: supplement CSV
Procedure, shortened: as §1

[5] = tested on: K. pneumoniae OXA-48; assay: microbe, parasite or virus in culture; settings: for MIC K. pneumoniae OXA-48: supplement CSV
Procedure, shortened: as §1

[6] = tested on: P. aeruginosa PA14 2P4 (pmrB); assay: microbe, parasite or virus in culture
Procedure, shortened: as §1

[7] = tested on: P. aeruginosa ZEM9A; assay: microbe, parasite or virus in culture; settings: for MIC P. aeruginosa ZEM9A: supplement CSV
Procedure, shortened: as §1

[8] = tested on: E. cloacae; assay: microbe, parasite or virus in culture; settings: for MIC E. cloacae: supplement CSV
Procedure, shortened: as §1

[9] = tested on: P. aeruginosa PAO1; assay: microbe, parasite or virus in culture; settings: for MIC P. aeruginosa PAO1: supplement CSV
Procedure, shortened: (§2)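 Read-out was visible growth after MTT addition, the MIC being the lowest inhibitory peptide concentration. Bacteria grown to log phase in LB were exposed in MH medium to peptide from 64 μg/mL in twofold dilutions for 15-18h at 37°C.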

[10] = tested on: S. aureus COL (MRSA); assay: microbe, parasite or virus in culture; settings: for MIC S. aureus COL (MRSA): supplement CSV
Procedure, shortened: as §2

[11] = tested on: E. coli W3110; assay: microbe, parasite or virus in culture; settings: for MIC E. coli W3110: supplement CSV
Procedure, shortened: as §2

[12] = tested on: K. pneumoniae NCTC 418; assay: microbe, parasite or virus in culture; settings: for MIC K. pneumoniae NCTC418: supplement CSV
Procedure, shortened: as §2

[13] = tested on: A. baumannii ATCC19606; assay: microbe, parasite or virus in culture; settings: for MIC A. baumannii ATCC19606: supplement CSV
Procedure, shortened: as §2

[14] = polymyxin B resistant strain, 12.5% MHB pH 7.4, 16–20 h at 37 °C

`CC[C@H](C)[C@H](NC(=O)[C@@H](CCCNC(=N)N)NC(=O)[C@H](CCCNC(=N)N)NC(=O)[C@@H]1CCCN1C(=O)[C@@H]1CCCN1C(=O)[C@H](CCCNC(=N)N)NC(=O)[C@@H]1CCCN1C(=O)[C@H](CCCNC(=N)N)NC(=O)[C@@H]1CCCN1C(=O)[C@H](CC(C)C)NC(=O)[C@H](Cc1ccc(O)cc1)NC(=O)[C@@H]1CCCN1C(=O)[C@@H]1CCCN1C(=O)[C@H](CCCCN)NC(=O)[C@H](CC(=O)O)NC(=O)[C@@H](N)C(C)C)C(=O)N[C@@H](Cc1ccc(O)cc1)C(=O)N[C@@H](CC(N)=O)C(=O)N[C@H](CCCNC(=N)N)C(N)=O` [Onc112, reference compound] (H-VDKPPYLPRPRPPR[dR]IYN[dR]-NH2) was tested, and the “Haemolysis on hRBC, MHC” value ([1]; 2.5% human red blood cells (final) in 10 mM phosphate, 150 mM NaCl, pH 7.4, 25 °C, 4 h, visual inspection) was greater than 1000 µg/mL, the “MHC human red blood cells” value ([1]; supplement CSV) was greater than 1000 µg/mL and the “MIC P. aeruginosa PA14 4.18 (pmrB), 12.5% MHB” value [2, 14] was 16 µg/mL (≈ 6.69 µM). For the same molecule, the “MIC P. aeruginosa PA14 4.18 (pmrB), full MHB” value ([2]; polymyxin B resistant strain, full MHB pH 7.4, 16–20 h at 37 °C) was greater than 32 µg/mL, the “MIC P. aeruginosa PA14 4.18” value ([2]; 12.5% MH pH 7.4) was 16 µg/mL (≈ 6.69 µM) and the “MIC P. aeruginosa PA14 4.18” value ([2]; full MH pH 7.4) was greater than 32 µg/mL. For the same molecule, the “MIC P. aeruginosa PA14, 12.5% MHB” value ([3]; 12.5% MHB pH 7.4, 16–20 h at 37 °C, two different duplicate MIC determinations) was 16 µg/mL (≈ 6.69 µM), the “MIC P. aeruginosa PA14, full MHB” value ([3]; full MHB pH 7.4, 16–20 h at 37 °C, two different duplicate MIC determinations) was greater than 32 µg/mL and the “MIC P. aeruginosa PA14” value ([3]; 12.5% MH pH 7.4) was 16 µg/mL (≈ 6.69 µM). For the same molecule, the “MIC P. aeruginosa PA14” value ([3]; full MH pH 7.4) was greater than 32 µg/mL, the “MIC P. aeruginosa ZEM-1A, 12.5% MHB” value ([4]; clinical isolate, 12.5% MHB pH 7.4, 16–20 h at 37 °C, cells marked c: single measurement (in duplicates)) was 8 µg/mL (≈ 3.35 µM) and the “MIC P. aeruginosa ZEM-1A, full MHB” value ([4]; clinical isolate, full MHB pH 7.4, 16–20 h at 37 °C, cells marked c: single measurement (in duplicates)) was 32 µg/mL (≈ 13.4 µM). The “MIC P. aeruginosa ZEM-1A” value ([4]; 12.5% MH pH 7.4) was 8 µg/mL (≈ 3.35 µM), the “MIC P. aeruginosa ZEM-1A” value ([4]; full MH pH 7.4) was 32 µg/mL (≈ 13.4 µM) and the “MIC K. pneumoniae OXA-48, 12.5% MHB” value ([5]; carbapenem-resistant, 12.5% MHB pH 7.4, 16–20 h at 37 °C) was 1 µg/mL (≈ 0.418 µM). The “MIC K. pneumoniae OXA-48, full MHB” value ([5]; carbapenem-resistant, full MHB pH 7.4, 16–20 h at 37 °C) was 8 µg/mL (≈ 3.35 µM), the “MIC K. pneumoniae OXA-48” value ([5]; 12.5% MH pH 7.4) was 1 µg/mL (≈ 0.418 µM) and the “MIC K. pneumoniae OXA-48” value ([5]; full MH pH 7.4) was 8 µg/mL (≈ 3.35 µM). The “MIC P. aeruginosa PA14 2P4 (pmrB), 12.5% MHB” value [6, 14] was 4 to 8 µg/mL, the “MIC P. aeruginosa PA14 2P4” value ([6]; supplement CSV, 12.5% MH pH 7.4) was 4 to 8 µg/mL and the “MIC P. aeruginosa ZEM9A, 12.5% MHB” value ([7]; clinical isolate, 12.5% MHB pH 7.4, 16–20 h at 37 °C) was 8 µg/mL (≈ 3.35 µM). The “MIC P. aeruginosa ZEM9A, full MHB” value ([7]; clinical isolate, full MHB pH 7.4, 16–20 h at 37 °C) was greater than 64 µg/mL, the “MIC P. aeruginosa ZEM9A” value ([7]; 12.5% MH pH 7.4) was 8 µg/mL (≈ 3.35 µM) and the “MIC P. aeruginosa ZEM9A” value ([7]; full MH pH 7.4) was greater than 64 µg/mL. For the same molecule, the “MIC E. cloacae, 12.5% MHB” value ([8]; 12.5% MHB pH 7.4, 16–20 h at 37 °C) was 1 µg/mL (≈ 0.418 µM), the “MIC E. cloacae, full MHB” value ([8]; full MHB pH 7.4, 16–20 h at 37 °C) was 2 µg/mL (≈ 0.837 µM) and the “MIC E. cloacae” value ([8]; 12.5% MH pH 7.4) was 1 µg/mL (≈ 0.418 µM). For the same molecule, the “MIC E. cloacae” value ([8]; full MH pH 7.4) was 2 µg/mL (≈ 0.837 µM), the “MIC P. aeruginosa, 12.5% MHB” value ([9]; P. aeruginosa PAO1, 12.5% Müller–Hinton medium, 16–20 h at 37 °C) was 4 µg/mL (≈ 1.67 µM) and the “MIC P. aeruginosa, Full MHB” value ([9]; P. aeruginosa PAO1, full Müller–Hinton medium, 16–20 h at 37 °C) was 64 µg/mL (≈ 26.8 µM). The “MIC P. aeruginosa PAO1” value ([9]; 12.5% MH pH 7.4) was 4 µg/mL (≈ 1.67 µM), the “MIC P. aeruginosa PAO1” value ([9]; full MH pH 7.4) was 64 µg/mL (≈ 26.8 µM) and the “MIC S. aureus, 12.5% MHB” value ([10]; S. aureus COL (MRSA), 12.5% Müller–Hinton medium, 16–20 h at 37 °C) was 32 µg/mL (≈ 13.4 µM). The “MIC S. aureus, Full MHB” value ([10]; S. aureus COL (MRSA), full Müller–Hinton medium, 16–20 h at 37 °C) was greater than 64 µg/mL, the “MIC S. aureus COL (MRSA)” value ([10]; 12.5% MH pH 7.4) was 32 µg/mL (≈ 13.4 µM) and the “MIC S. aureus COL (MRSA)” value ([10]; full MH pH 7.4) was greater than 64 µg/mL. The “MIC E. coli, 12.5% MHB” value ([11]; E. coli W3110, 12.5% Müller–Hinton medium, 16–20 h at 37 °C, broth microdilution) was 2 µg/mL (≈ 0.837 µM), the “MIC E. coli, Full MHB” value ([11]; E. coli W3110, full Müller–Hinton medium, 16–20 h at 37 °C, broth microdilution) was 4 µg/mL (≈ 1.67 µM) and the “MIC E. coli W3110” value ([11]; 12.5% MH pH 7.4) was 2 µg/mL (≈ 0.837 µM). For the same molecule, the “MIC E. coli W3110” value ([11]; full MH pH 7.4) was 4 µg/mL (≈ 1.67 µM), the “MIC K. pneumoniae, 12.5% MHB” value ([12]; K. pneumoniae NCTC 418, 12.5% Müller–Hinton medium, 16–20 h at 37 °C) was 2 µg/mL (≈ 0.837 µM) and the “MIC K. pneumoniae, Full MHB” value ([12]; K. pneumoniae NCTC 418, full Müller–Hinton medium, 16–20 h at 37 °C) was 4 µg/mL (≈ 1.67 µM). The “MIC K. pneumoniae NCTC418” value ([12]; 12.5% MH pH 7.4) was 2 µg/mL (≈ 0.837 µM), the “MIC K. pneumoniae NCTC418” value ([12]; full MH pH 7.4) was 4 µg/mL (≈ 1.67 µM) and the “MIC A. baumannii, 12.5% MHB” value ([13]; A. baumannii ATCC19606, 12.5% Müller–Hinton medium, 16–20 h at 37 °C) was 4 µg/mL (≈ 1.67 µM). For the same molecule, the “MIC A. baumannii, Full MHB” value ([13]; A. baumannii ATCC19606, full Müller–Hinton medium, 16–20 h at 37 °C) was 32 µg/mL (≈ 13.4 µM), the “MIC A. baumannii ATCC19606” value ([13]; 12.5% MH pH 7.4) was 4 µg/mL (≈ 1.67 µM) and the “MIC A. baumannii ATCC19606” value ([13]; full MH pH 7.4) was 32 µg/mL (≈ 13.4 µM).
